Measurements reported in PubChem BioAssay (NCI).
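Each compound was tested at five concentrations against cells in 96-well plates for 48 hours. TGI marks complete inhibition of growth.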

Key:
Assay in all cases: growth of human tumour cells (NCI), 48 h
[1] = test system: OVCAR-4 ovarian
[2] = test system: T-47D breast
[3] = test system: RXF 393 renal
[4] = test system: OVCAR-3 ovarian
[5] = test system: SF-295 CNS
[6] = test system: HOP-62 NSCLC
[7] = test system: A498 renal
[8] = test system: SNB-19 CNS
[9] = test system: HCC-2998 colon
[10] = test system: NCI-H226 lung
[11] = test system: HOP-92 NSCLC

SMILES	TGI [1] [µM]	TGI [2] [µM]	TGI [3] [µM]	TGI [4] [µM]	TGI [5] [µM]	TGI [6] [µM]	TGI [7] [µM]	TGI [8] [µM]	TGI [9] [µM]	TGI [10] [µM]	TGI [11] [µM]
CSC1=C(C)S/C(=C\c2ccc(/C=C3\SC(C)=C(SC)S3)cc2)S1	> 100	> 100	79	> 100	> 100	> 100	> 100	> 100	> 100	> 100	> 100
Cc1cccc2c1CC(C1OC(=O)c3c(C)cccc31)C2=O (stereo not given)	> 100	> 100	> 100	> 100	> 100	> 100	> 100	> 100	> 100	> 100	> 100
CCOc1cc(NC(C)=O)ccc1C(=O)NN1C(=O)C(Cl)C1c1ccc(O)c(OC)c1 (stereo not given)	31.6	30.8	29.2	38.5	39.1	35.8	28.4	29.5	32.2	48.3	32.3
COC(=O)C1=C(O)C(C(=O)OC)[C@]2(O)[C@H](C(=O)OC)[C@H]1C[C@@H](c1ccc(O)cc1)[C@H]2C(=O)OC (stereo not given in full)	> 100	> 100	45.1	35.6	58.8	55.4	> 100	> 100	46.5	> 100	> 100
c1ccc2c(c1)Sc1ccccc1N2CCCN1c2ccccc2Sc2ccccc21	> 100	> 100	> 100	> 100	> 100	> 100	> 100	> 100	> 100	> 100	> 100
N#CCN(Cc1ccccc1)[C@H]1CCC[C@]1(O)/C=C/c1ccc2c(c1)OCO2	> 100	46.4	77.3	57.6	31.4	82.6	> 100	76.3	33.4	44.4	60.9
COc1ccccc1/[N+]([O-])=C/c1ccccc1OC(=S)S	> 100	> 100	> 100	> 100	> 100	–	> 100	> 100	80.4	> 100	61.8
Cc1ccc([N+](=O)[O-])cc1S(=O)(=O)Nc1ccc(C2=NOC(c3ccccc3)C2)cc1 (stereo not given)	11.8	51.1	9.44	10.5	19.7	22.9	56.8	55.5	25.8	> 100	61.2
CCOC(=O)NC(OCCN(C)C)(C(F)(F)F)C(F)(F)F	–	> 100	> 100	> 100	> 100	> 100	> 100	> 100	> 100	> 100	> 100
CC1=NN(c2cccc(Cl)c2)C(=N/c2nc3ccccc3s2)/C1=C\c1ccccc1O	> 100	> 100	> 100	60.4	86.2	> 100	52.4	–	45.4	87.8	83.5
CN(C)Cc1cc(N=Nc2c(Cl)cccc2Cl)ccc1O	> 100	> 100	> 100	> 100	> 100	> 100	> 100	> 100	> 100	> 100	> 100
Cc1nc(C)c(N2CCN(C(=O)NC(CCC(=O)O)C(=O)O)CC2)c(=O)[nH]1 (stereo not given)	> 100	> 100	> 100	> 100	> 100	> 100	> 100	> 100	> 100	> 100	> 100
O=S(=O)(O)c1ccc(N=Nc2c(O)ccc3ccccc23)cc1	> 100	> 100	> 100	> 100	> 100	> 100	> 100	> 100	> 100	> 100	> 100
CC(SC(=S)N1CCCC1)C(=O)Nc1nnc(-c2ccc(Cl)cc2)o1 (stereo not given)	> 100	> 100	> 100	> 100	–	> 100	> 100	> 100	> 100	> 100	> 100
O=C1CSC2(CC(/C=C/c3cccc(Br)c3)=NN2c2cccc(S(=O)(=O)O)c2)N1c1nc2ccccc2s1 (stereo not given)	> 100	> 100	> 100	> 100	> 100	> 100	> 100	> 100	> 100	> 100	> 100
O=C(/C=C/c1ccsc1)c1cccs1	> 100	54.3	42.9	57.3	> 100	> 100	> 100	> 100	34.7	> 100	93.5
N/C(=N\Nc1cccc(Cl)c1)c1cccnc1	> 100	> 92.6	> 80.3	> 86.3	> 100	> 100	87.4	> 100	> 100	> 100	> 100
COC(=O)C1=C(O)C(C(=O)OC)[C@]2(O)[C@H](C(=O)OC)[C@H]1C[C@@H](c1ccc(Cl)cc1Cl)[C@H]2C(=O)OC (stereo not given in full)	67.6	96.9	33.7	24.9	31.6	20.9	30.4	24.3	21.9	16.3	23.8
COc1ccc2c(c1)nc1n2C(c2c(F)cccc2F)SC1 (stereo not given)	> 100	> 100	> 100	> 100	> 100	> 100	> 100	> 100	> 100	> 100	> 100
